ChEMBL document CHEMBL4028900, “Design of Novel 3-Pyrimidinylazaindole CDK2/9 Inhibitors with Potent In Vitro and In Vivo Antitumor Efficacy in a Triple-Negative Breast Cancer Model” (J Med Chem, 2017)

Experiments:
CDK2/Cyclin A2 = CDK2/Cyclin A2 (Homo sapiens, UniProt P24941); experiment: Inhibition of CDK2/cyclin A (unknown origin) using histone H1 as substrate after 30 mins in presence of [33P]-gamma-ATP; format: protein-complex assay
CDK9/cyclin T1 = CDK9/cyclin T1 (Homo sapiens, UniProt P50750); format: protein-complex assay
Sequence of CDK9/cyclin T1 (O60563 whole entry): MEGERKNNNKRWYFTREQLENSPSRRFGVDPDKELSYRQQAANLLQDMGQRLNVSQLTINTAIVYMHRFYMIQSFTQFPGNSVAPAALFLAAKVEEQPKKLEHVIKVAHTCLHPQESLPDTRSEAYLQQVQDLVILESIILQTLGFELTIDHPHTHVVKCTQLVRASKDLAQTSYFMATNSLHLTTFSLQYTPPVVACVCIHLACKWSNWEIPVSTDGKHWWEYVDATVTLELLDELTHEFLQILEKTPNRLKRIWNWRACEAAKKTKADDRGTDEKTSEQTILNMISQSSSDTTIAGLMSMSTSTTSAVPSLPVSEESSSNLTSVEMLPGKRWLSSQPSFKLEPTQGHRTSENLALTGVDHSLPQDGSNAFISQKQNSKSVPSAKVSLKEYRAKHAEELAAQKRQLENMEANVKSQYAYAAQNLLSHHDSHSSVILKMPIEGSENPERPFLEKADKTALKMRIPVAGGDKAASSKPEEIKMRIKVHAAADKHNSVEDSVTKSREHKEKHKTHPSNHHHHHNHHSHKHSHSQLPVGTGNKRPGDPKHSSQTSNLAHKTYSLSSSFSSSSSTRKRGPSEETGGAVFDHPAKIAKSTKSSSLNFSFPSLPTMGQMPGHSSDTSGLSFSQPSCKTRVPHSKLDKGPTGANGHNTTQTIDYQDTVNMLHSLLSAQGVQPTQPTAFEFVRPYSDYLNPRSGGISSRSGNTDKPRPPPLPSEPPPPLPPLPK
Sequence of CDK9/cyclin T1 (P50750 whole entry): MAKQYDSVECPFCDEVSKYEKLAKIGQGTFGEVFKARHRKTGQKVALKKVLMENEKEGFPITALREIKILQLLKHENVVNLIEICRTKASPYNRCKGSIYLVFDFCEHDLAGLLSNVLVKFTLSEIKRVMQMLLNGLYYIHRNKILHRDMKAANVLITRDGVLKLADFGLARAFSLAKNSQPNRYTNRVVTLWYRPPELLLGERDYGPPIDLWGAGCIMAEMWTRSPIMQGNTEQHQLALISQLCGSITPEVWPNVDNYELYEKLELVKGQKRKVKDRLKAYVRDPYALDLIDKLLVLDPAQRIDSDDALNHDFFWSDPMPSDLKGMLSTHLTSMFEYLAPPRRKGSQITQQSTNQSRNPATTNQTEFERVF

[1] = biological target: CDK2/Cyclin A2 (Homo sapiens) (UniProt P24941+P20248); details: at 500 nM
Description: Inhibition of CDK2/cyclin A (unknown origin) at 500 nM using histone H1 as substrate after 30 mins in presence of [33P]-gamma-ATP relative to control

[2] = biological target: CDK9/cyclin T1 (Homo sapiens) (UniProt O60563+P50750); details: at 500 nM
HCT-116 = experiment: Antiproliferative activity against human HCT116 cells after 72 hrs by SRB assay; details: HCT-116, 72 h
SH-SY5Y = experiment: Antiproliferative activity against human SH-SY5Y cells after 24 hrs by MTT assay; format: functional, cell-based

SMILES	IC50 (CDK2/Cyclin A2) [nM]	IC50 (CDK9/cyclin T1) [nM]	inhibition [1] [%]	inhibition [2] [%]	IC50 (HCT-116) [nM]	IC50 (SH-SY5Y) [nM]
COc1ccc2ccccc2c1-c1cnc2[nH]cc(-c3ccnc(N)n3)c2c1	1090	625	24.2	47.4	–	–
c1cnc2[nH]cc(-c3ccnc(N4CCCCC4)n3)c2c1	300	800	74	71.9	–	–
CN1CCN(c2nccc(-c3c[nH]c4ncccc34)n2)CC1	350	700	71.6	70.5	–	–
COc1ccc2[nH]c(-c3cnc4[nH]cc(-c5ccnc(N)n5)c4c3)cc2c1	16	342	90.2	82.4	–	–
c1ccc2c(CCNc3nccc(-c4c[nH]c5ncccc45)n3)c[nH]c2c1	10	52	89.7	88	–	–
c1cnc2[nH]cc(-c3ccnc(N4CCCC4)n3)c2c1	160	450	78.3	77.2	–	–
Nc1nccc(-c2c[nH]c3ncc(-c4ccc(OC(F)(F)F)cc4)cc23)n1	–	–	–	–	1500	400
Nc1nccc(-c2c[nH]c3ncc(-c4ccsc4)cc23)n1	1	35	95.1	93.5	600	3300
Nc1nccc(-c2c[nH]c3ncc(-c4cc5ccccc5s4)cc23)n1	12	82	92	86.4	–	–
COc1ccc(CCNc2nccc(-c3c[nH]c4ncccc34)n2)cc1OC	22	59	89.2	85	–	–
c1cnc2[nH]cc(-c3ccnc(N4CCOCC4)n3)c2c1	231	642	73.3	72.9	–	–
Nc1nccc(-c2c[nH]c3ncc(-c4cccc(C(F)(F)F)c4)cc23)n1	10	47	93.4	86.5	–	–
COc1ccc(CCNc2nccc(-c3c[nH]c4ncccc34)n2)cc1	4	38	97.7	91	9500	–
Nc1nccc(-c2c[nH]c3ncc(-c4cc5ccccc5o4)cc23)n1	23	93	87.9	85	–	–

Second part, the compound after the results:

IC50 (CDK2/Cyclin A2) [nM]	IC50 (CDK9/cyclin T1) [nM]	inhibition [1] [%]	inhibition [2] [%]	IC50 (HCT-116) [nM]	IC50 (SH-SY5Y) [nM]	SMILES
–	–	22.6	40	–	–	Nc1nccc(-c2cn(S(=O)(=O)c3ccc(F)cc3)c3ncccc23)n1
–	–	28.1	31.2	–	–	Nc1nccc(-c2cn(S(=O)(=O)c3ccc(Br)cc3)c3ncccc23)n1
–	–	55.2	50.3	–	–	Cn1cncc1S(=O)(=O)n1cc(-c2ccnc(N)n2)c2cccnc21
24	45	78.7	93.7	–	–	CSc1ccccc1-c1cnc2[nH]cc(-c3ccnc(N)n3)c2c1
–	–	28.4	50.9	–	–	Nc1nccc(-c2cn(S(=O)(=O)c3ccc(C(F)(F)F)cc3)c3ncccc23)n1
–	–	48.7	52.2	–	–	Nc1nccc(-c2cn(S(=O)(=O)c3ccc4c(c3)OCCO4)c3ncccc23)n1
–	–	31.3	54.4	–	–	Nc1nccc(-c2cn(S(=O)(=O)c3ccc(OC(F)(F)F)cc3)c3ncccc23)n1
–	–	36.3	44.2	–	–	CC(=O)Nc1ccc(S(=O)(=O)n2cc(-c3ccnc(N)n3)c3cccnc32)cc1
182	159	79.2	84	–	–	Nc1nccc(-c2c[nH]c3ncc(-c4cccc5ccccc45)cc23)n1
–	–	84.8	82.6	–	–	Cc1cccc(-c2cnc3[nH]cc(-c4ccnc(N)n4)c3c2)c1
75	213	79.3	70.4	–	–	CCc1ccccc1-c1cnc2[nH]cc(-c3ccnc(N)n3)c2c1
